This passage reports logP results from EP2138586A1, “Process for the regioselective preparation of disaccharides or oligosaccharides” (Cognis IP Management GmbH, priority 2008, dated 2009).

The data set can be described thus: log P of the solvents used in the transglycosylation (Table 1). The format is physicochemical. Particulars: property of the dialkyl amide solvent; method not described.

As usually defined, the logP is a log measure of how a compound divides between an organic and an aqueous phase. A high value points to a more lipophilic compound. For `CCCCCCCC(=O)N(C)C` [CDMA, caprylic dimethyl amide], the lipophilicity (logP) turned out to be 1.42.

On to `CC(O)C(=O)N(C)C` (centres unmarked) [LDMA, lactic acid dimethyl amide], for which the logP is -0.69.
